From ChEMBL document CHEMBL3868581, “Avarol derivatives as competitive AChE inhibitors, non hepatotoxic and neuroprotective agents for Alzheimer's disease” (Eur J Med Chem, 2016)
Calls of active or inactive are those of the source. The calls are words filed in the database; no cut-off is given here.

What was measured:
cells [1] = settings: Homo sapiens, SH-SY5Y, 24 h
Description: Neuroprotective activity against oligomycine/rotenone-induced oxidative stress-mediated cell death in human SH-SY5Y cells assessed as increase in cell viability after 24 hrs by XTT assay

[2] = Neurotoxicity in human SH-SY5Y cells assessed as decrease in cell viability at 1 uM after 24 hrs by XTT assay; type: toxicity, cell-based
[3] = Neurotoxicity in human SH-SY5Y cells assessed as decrease in cell viability at 25 to 50 uM after 24 hrs by XTT assay; type: toxicity, cell-based
[4] = biological target: Cholinesterase (Equus caballus) (UniProt P81908); assay: Inhibition of equine serum BuChE using butyrylthiocholine iodide as substrate at 50 uM incubated for 15 mins followed by substrate addition by Ellman's method
Cholinesterase (Equus caballus), sequence (P81908 whole entry): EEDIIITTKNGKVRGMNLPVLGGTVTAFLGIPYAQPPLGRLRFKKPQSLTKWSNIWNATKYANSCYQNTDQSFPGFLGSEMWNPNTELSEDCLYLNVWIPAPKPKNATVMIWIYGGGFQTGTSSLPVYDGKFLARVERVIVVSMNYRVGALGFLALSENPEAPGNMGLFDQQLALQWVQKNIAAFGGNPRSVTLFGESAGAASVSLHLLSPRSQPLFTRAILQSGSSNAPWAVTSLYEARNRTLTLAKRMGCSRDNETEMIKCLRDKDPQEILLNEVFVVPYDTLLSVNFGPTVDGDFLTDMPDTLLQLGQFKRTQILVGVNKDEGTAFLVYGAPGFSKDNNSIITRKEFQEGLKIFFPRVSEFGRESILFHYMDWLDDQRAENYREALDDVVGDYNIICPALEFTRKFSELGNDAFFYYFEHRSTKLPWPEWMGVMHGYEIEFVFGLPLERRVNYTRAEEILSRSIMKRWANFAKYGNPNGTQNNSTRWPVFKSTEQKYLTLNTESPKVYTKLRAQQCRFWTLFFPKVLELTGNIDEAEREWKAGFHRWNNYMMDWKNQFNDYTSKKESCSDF

Cholinesterase = Cholinesterase (Equus caballus, UniProt P81908)
Cholinesterase, sequence (P81908 whole entry): as above
Description: Inhibition of equine serum BuChE using butyrylthiocholine iodide as substrate incubated for 15 mins followed by substrate addition by Ellman's method

Acetylcholinesterase [5] = biological target: T1, Acetylcholinesterase (Electrophorus electricus, UniProt O42275)
T1 sequence (O42275 whole entry): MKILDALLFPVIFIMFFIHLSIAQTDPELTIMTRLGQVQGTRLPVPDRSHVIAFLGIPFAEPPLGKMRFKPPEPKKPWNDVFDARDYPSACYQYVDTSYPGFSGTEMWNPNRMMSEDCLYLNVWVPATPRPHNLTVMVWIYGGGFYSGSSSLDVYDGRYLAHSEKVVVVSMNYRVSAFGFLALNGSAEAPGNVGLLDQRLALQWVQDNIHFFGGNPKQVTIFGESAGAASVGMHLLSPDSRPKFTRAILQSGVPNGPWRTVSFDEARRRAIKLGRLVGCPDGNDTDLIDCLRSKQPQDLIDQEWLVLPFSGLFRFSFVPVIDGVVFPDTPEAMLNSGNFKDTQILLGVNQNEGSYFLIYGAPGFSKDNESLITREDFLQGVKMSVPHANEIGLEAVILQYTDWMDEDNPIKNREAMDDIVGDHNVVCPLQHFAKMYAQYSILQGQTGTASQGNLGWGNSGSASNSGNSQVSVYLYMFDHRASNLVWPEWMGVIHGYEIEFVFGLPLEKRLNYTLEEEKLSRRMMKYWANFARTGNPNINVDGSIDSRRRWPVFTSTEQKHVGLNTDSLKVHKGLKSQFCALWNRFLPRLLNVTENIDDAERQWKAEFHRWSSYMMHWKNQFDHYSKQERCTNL
Description: Inhibition of Electrophorus electricus AChE using acetylthiocholine iodide as substrate incubated for 15 mins followed by substrate addition by Ellman's method

cells [6] = settings: Homo sapiens, SH-SY5Y, 24 h; remark: listed apart in the source
Description: Neuroprotective activity against okadaic acid-induced tau phosphorylation-mediated cell death in human SH-SY5Y cells assessed as increase in cell viability after 24 hrs by XTT assay

HepG2 [7] = assay: Hepatotoxicity in human HepG2 cells assessed as decrease in cell viability at 100 uM after 24 hrs by XTT assay; type: toxicity, cell-based; settings: hepg2, 24 h
Acetylcholinesterase [8] = biological target: T1, Acetylcholinesterase; remark: listed apart in the source
Description: Inhibition of Electrophorus electricus AChE using acetylthiocholine iodide as substrate by Dixon plot analysis

[9] = biological target: Acetylcholinesterase (Electrophorus electricus) (UniProt O42275); assay: Competitive inhibition of Electrophorus electricus AChE using acetylthiocholine iodide as substrate at 0.001 to 10 uM incubated for 15 mins followed by substrate addition by Lineweaver-Burk reciprocal plot analysis
Acetylcholinesterase (Electrophorus electricus), sequence (O42275 24-633 limits assumed): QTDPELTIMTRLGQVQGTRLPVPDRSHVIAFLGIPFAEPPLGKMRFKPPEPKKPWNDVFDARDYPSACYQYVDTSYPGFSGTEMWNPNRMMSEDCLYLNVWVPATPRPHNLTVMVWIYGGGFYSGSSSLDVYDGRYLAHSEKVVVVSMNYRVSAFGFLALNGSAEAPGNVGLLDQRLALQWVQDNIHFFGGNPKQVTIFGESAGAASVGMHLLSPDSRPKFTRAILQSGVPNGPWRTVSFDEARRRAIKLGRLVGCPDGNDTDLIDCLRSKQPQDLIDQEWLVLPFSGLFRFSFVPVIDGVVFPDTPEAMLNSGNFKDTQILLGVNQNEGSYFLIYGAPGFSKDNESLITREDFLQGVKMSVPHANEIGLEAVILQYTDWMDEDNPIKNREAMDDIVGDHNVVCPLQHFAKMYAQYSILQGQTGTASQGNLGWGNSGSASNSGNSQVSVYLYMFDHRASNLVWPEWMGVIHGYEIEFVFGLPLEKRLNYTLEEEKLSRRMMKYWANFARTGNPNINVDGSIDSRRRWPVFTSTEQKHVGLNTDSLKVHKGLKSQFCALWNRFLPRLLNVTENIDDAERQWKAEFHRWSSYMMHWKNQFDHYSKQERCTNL

HepG2 [10] = assay: Hepatotoxicity in human HepG2 cells assessed as decrease in cell viability at 1 to 100 uM after 24 hrs by XTT assay; type: toxicity, cell-based; settings: hepg2, 24 h
HepG2 [11] = assay: Hepatoprotective activity in human HepG2 cells at 1 to 25 uM after 24 hrs by XTT assay; type: functional, cell-based
SH-SY5Y [12] = assay: Neuroprotective activity against oligomycine/rotenone-induced oxidative stress-mediated cell death in human SH-SY5Y cells assessed as increase in cell viability at 10 uM after 24 hrs by microscopic analysis; type: functional, cell-based
SH-SY5Y [13] = assay: Neuroprotective activity against okadaic acid-induced tau phosphorylation-mediated cell death in human SH-SY5Y cells assessed as increase in cell viability at 10 uM after 24 hrs by microscopic analysis; type: functional, cell-based
cells [14] = settings: Rattus norvegicus, Sprague-Dawley, Cortical neurone, 3 h
Description: Neuroprotective activity against NMDA-induced excitotoxicity in Sprague-Dawley rat primary cortical neurons assessed as increase in cell viability after 3 hrs by MTT assay

For `C/C(=C\Cc1cc(O)cc(Sc2ccccc2C(=O)O)c1O)CCCC(C)CCCC(C)CCCC(C)C` (configuration not stated), the EC50 (cells [1]) was 1.1 µM, the Activity [2] was “Non-Toxic” and the Activity [3] was “Non-Toxic”. For the same compound, the Imax [4] was 94.3 to 95%, the IC50 (Cholinesterase) was 12.8 µM and the IC50 (Acetylcholinesterase [5]) was 13.8 µM. The EC50 (cells [6]) was 1.21 µM and the Activity (HepG2 [7]) was “Toxic”.

In the case of `CC(C)=CCc1cc(O)cc(Sc2ccccc2C(=O)O)c1O`, the Ki (Acetylcholinesterase [8]) is reported as 0.221 nM, the EC50 (cells [1]) is reported as 4.65 µM and the Activity [2] is reported as “Non-Toxic”. The inhibition [9] was “Active”, the Activity (HepG2 [10]) was “Non-Toxic” and the Activity [3] was “Non-Toxic”. It also gave an Imax [4] of 13.1%, an IC50 (Acetylcholinesterase [5]) of 7.88 µM and an EC50 (cells [6]) of 0.54 µM.

With `CC(C)=CCC/C(C)=C/CC/C(C)=C/CC/C(C)=C/Cc1cc(O)cc(Sc2ccccc2C(=O)O)c1O` the Ki (Acetylcholinesterase [8]) was 0.00059 nM, the EC50 (cells [1]) was 0.52 µM and the Activity (HepG2 [11]) was “Active”. The Activity [2] was “Non-Toxic”, the inhibition [9] was “Active” and the Activity (HepG2 [10]) was “Non-Toxic”. For the same compound, the Activity [3] was “Non-Toxic”, the Imax [4] was 60.5% and the Activity (SH-SY5Y [12]) was “Active”. For the same compound, the Activity (SH-SY5Y [13]) was “Active”, the IC50 (Cholinesterase) was 19.7 µM and the IC50 (Acetylcholinesterase [5]) was 6.77 µM. The EC50 (cells [6]) was 0.15 µM.

For `COc1ccc2c3c1O[C@H]1C[C@@H](O)C=C[C@@]31CCN(C)C2` [GALANTAMINE], the EC50 (cells [1]) was 2.81 µM, the Activity [2] was “Non-Toxic” and the Activity [3] was “Non-Toxic”. It also gave an EC50 (cells [14]) of 1.48 µM and an EC50 (cells [6]) of 1.94 µM.

With `CC(C)=CCC/C(C)=C/Cc1cc(O)cc(Sc2ccccc2C(=O)O)c1O` the EC50 (cells [1]) was 8.17 µM, the Activity [2] was “Non-Toxic” and the Activity (HepG2 [10]) was “Non-Toxic”. The Activity [3] was “Non-Toxic”, the Imax [4] was 17.8% and the IC50 (Acetylcholinesterase [5]) was 13.1 µM. For the same compound, the EC50 (cells [6]) was 0.22 µM.

With `CC1=CCC[C@H]2[C@](C)(Cc3cc(O)cc(Sc4ccccc4C(=O)O)c3O)[C@@H](C)CC[C@]12C` the Ki (Acetylcholinesterase [8]) was 0.0585 nM, the inhibition [9] was “Active” and the Imax [4] was 77.5%. The IC50 (Cholinesterase) was 15.1 µM and the IC50 (Acetylcholinesterase [5]) was 15.1 µM.

In the case of `CC1=CCC[C@H]2[C@](C)(Cc3cc(O)ccc3O)[C@@H](C)CC[C@]12C` [AVAROL], the Activity [2] is reported as “Non-Toxic”, the Activity [3] is reported as “Non-Toxic” and the IC50 (Acetylcholinesterase [5]) is reported as 286 µM.

In the case of `CC(C)=CCC/C(C)=C/CC/C(C)=C/Cc1cc(O)cc(Sc2ccccc2C(=O)O)c1O`, the EC50 (cells [1]) is reported as 13.6 µM, the Activity [2] is reported as “Non-Toxic” and the Activity (HepG2 [10]) is reported as “Non-Toxic”. The Activity [3] was “Non-Toxic”, the Imax [4] was 8.4% and the IC50 (Acetylcholinesterase [5]) was 18.1 µM. It also gave an EC50 (cells [6]) of 0.516 µM.
